{"source": "patent US20260166017A1", "about": "“SARM1 INHIBITORS FOR USE IN THERAPY AND COSMETICS” (priority 2022, published 2026)", "key": {"[1]": {"tested_on": "Schwann cells", "assay": "Intracellular NAD+ in Schwann cells (NAD-glo assay)", "assay_type": "cell-based, mouse", "conditions": "250 μM 3AP, 72 hours, compared to DMSO control, listed as 3AP", "protocol": "(§1) Freshly plated mouse Schwann cells were obtained from P2 sciatic and brachial nerves. Nerves were digested with trypsin and collagenase, centrifuged and plated on laminin/Poly-L-lysine coated glass coverslips in defined medium as previously described (Arthur-Farraj et al., 2011).\n[…] Protein was extracted using Pierce™ IP Lysis Buffer supplemented with cOmplete™ Mini EDTA-free Protease Inhibitor Cocktail, and a BCA assay carried out to determine protein concentration. All samples were diluted to 0.5 μg/μL. The NAD-glo assay was performed according to manufacturer's instruction of the NAD^+/NADH-Glo™ assay by Promega (G9071). In short, 25 μL of sample were incubated with 12.5 μL 0.4M HCl at 60° C. for 15 min, before 12.5 μL 0.5M Tris base were added. 10 μL NAD^+ standards or sample were then mixed with 10 μL NAD-glo master mix (1 ml luciferin detection reagent, 5 μl reductase, 5 μl reductase substrate, 5 μl NAD^+ cycling enzyme, 25 μl NAD^+ cycling substrate) and incubated at RT for 40 min. Luminescence was read using a GloMax® Explorer microplate reader and NAD^+ concentrations determined relative to a NAD^+ standard curve."}, "[2]": {"tested_on": "freshly plated P2 mouse Schwann cells", "assay": "Cell death in freshly plated P2 mouse Schwann cells (propidium iodide, DAPI, SOX10)", "assay_type": "cell-based", "conditions": "250 μM 3-AP for 72 hours vs water", "protocol": "as §1\nSciatic and optic nerves were dissected from Wt and Sarm1 KO mice and directly embedded in O.C.T. compound, without fixing, and stored at −80° C. until ready for cryosectioning. Cryosections at 5 μm thick were collected onto SuperFrost plus slides. These slides were post-fixed in 4% paraformaldehyde (PFA) at room temperature for 10 mins followed by three washes of 5 mins each with 1×PBS. The slides were then immersed in 100% methanol at −20° C. for 10 mins, followed by three washes of 5 mins each with 1×PBS. The slides were then blocked in 5% horse serum (HS)/0.2% Triton x-100/PBS for 30 mins at room temperature. Primary antibodies were diluted in blocking solution and slides were incubated overnight at 4° C. The following day, the slides were washed once for 5 mins with 1×PBS, twice for 5 mins with 0.1% tween/PBS and finally once again for 5 mins with 1×PBS before adding secondary antibodies. The corresponding secondary antibodies were diluted at 1:500 along with DAPI at 1:2000 for 2 hrs at room temperature and kept in the dark. […]"}, "[3]": {"tested_on": "neuronal cultures", "conditions": "Loreto et al., 2021, Wu et al.; cited from earlier work"}, "[4]": {"tested_on": "expanded mouse Schwann cells", "assay": "Cell death in expanded mouse Schwann cells passaged three times (phase contrast, propidium iodide)", "assay_type": "cell-based", "conditions": "250 μM 3-AP for 72 hours vs water; Schwann cells passaged three times in proliferative medium", "protocol": "Mouse SCs were passaged on PLL/laminin coated dishes in the presence of low serum (0.5% horse serum), 10 ng/ml Bneuregulin1 (BNRG1), and a low concentration cyclic adenosine monophosphate (CAMP) elevating signal, such as 2 μM forskolin or 100 μM dibutryl cAMP (Arthur-Farraj et al., 2011). Full protocol is described in (Mutschler et al., 2023)."}, "[5]": {"biological_target": "T1, SARM1 (Homo sapiens, UniProt Q6SZW1)", "T1 sequence (Q6SZW1 28-724)": "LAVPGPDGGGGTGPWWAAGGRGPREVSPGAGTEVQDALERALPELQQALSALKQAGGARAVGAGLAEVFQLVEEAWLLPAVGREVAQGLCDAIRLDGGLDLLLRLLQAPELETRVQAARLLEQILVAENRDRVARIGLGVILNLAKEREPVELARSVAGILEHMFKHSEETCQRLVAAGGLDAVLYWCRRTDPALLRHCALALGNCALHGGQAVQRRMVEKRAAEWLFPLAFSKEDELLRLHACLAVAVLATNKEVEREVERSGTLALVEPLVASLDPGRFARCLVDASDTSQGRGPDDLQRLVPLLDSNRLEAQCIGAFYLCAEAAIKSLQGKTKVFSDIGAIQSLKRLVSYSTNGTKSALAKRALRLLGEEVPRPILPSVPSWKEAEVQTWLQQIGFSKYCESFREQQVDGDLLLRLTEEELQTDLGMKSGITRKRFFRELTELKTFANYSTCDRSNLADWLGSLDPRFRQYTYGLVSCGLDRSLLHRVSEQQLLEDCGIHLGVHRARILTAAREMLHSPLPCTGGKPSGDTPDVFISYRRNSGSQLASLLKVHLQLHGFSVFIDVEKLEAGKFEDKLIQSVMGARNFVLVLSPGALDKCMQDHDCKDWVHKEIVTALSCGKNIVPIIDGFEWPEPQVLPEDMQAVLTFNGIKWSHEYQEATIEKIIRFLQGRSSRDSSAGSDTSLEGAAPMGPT", "conditions": "cited from earlier work; for SARM1 activation in in vitro assays: Zhao et al., 2019; for SARM1 activation on binding in the allosteric site (ARM domain): Figley et al."}, "[6]": {"biological_target": "T1, SARM1", "conditions": "Zhao et al., 2019; cited from earlier work"}}, "note": "“Also recorded” adds a separate entry of the source."}
{"compound": "CC(=O)c1cccnc1", "note": "[3-AP, 3-acetylpyridine]", "values": [{"measurement": "Intracellular NAD+ levels", "setting": "[1]", "result": "do not change"}, {"measurement": "cell death judged by propidium iodide (P.I) and DAPI nuclear staining and SOX10 immunocytochemistry", "setting": "[2]", "result": "completely insensitive; also recorded: no cell death"}, {"measurement": "effect of high dose on neuronal cultures", "setting": "[3]", "result": "axonal degeneration and cell death within hours"}, {"measurement": "cell death by propidium iodide (P.I.) staining and phase contrast", "setting": "[4]", "result": "susceptible to cellular dysfunction and death; also recorded: substantial increase in P.I. staining"}, {"measurement": "SARM1 activity on interaction with active site (TIR domain) for base exchange reaction", "setting": "[5]; Loreto et al., 2021, Angeletti et al., 2022, Wu et al.", "result": "increase in SARM1 activity"}]}
{"compound": "NC(=O)c1ccc[n+]([C@@H]2O[C@H](COP(=O)(O)O)C(O)C2F)c1", "note": "(some centres unmarked) [CZ-17, ara-F-NMN]", "values": [{"measurement": "SARM1 activation in in vitro assays", "setting": "[5]", "result": "can activate SARM1"}]}
{"compound": "NC(=O)c1ccc[n+]([C@@H]2O[C@H](COP(=O)(O)O)C(O)C2O)c1", "note": "(some centres unmarked) [NMN, Nicotinamide Mononucleotide]", "values": [{"measurement": "SARM1 activation on binding in the allosteric site (ARM domain)", "setting": "[5]; Loreto et al., 2021", "result": "potently activates it"}]}
{"compound": "NC(=O)c1ccc[n+]([C@@H]2O[C@H](COP(O)(O)=S)C(O)C2O)c1", "note": "(some centres unmarked) [S-NMN]", "values": [{"measurement": "SARM1 activation in in vitro assays", "setting": "[5]", "result": "can activate SARM1"}]}
{"compound": "O=C(NCc1ccc[n+](C2OC(COP(=O)([O-])O)C(O)C2O)c1)Nc1ccc([N+](=O)[O-])cc1", "note": "(centres unmarked) [VMN, Vacor Mononucleotide]", "values": [{"measurement": "SARM1 activation on binding in the allosteric site (ARM domain)", "setting": "[5]; Loreto et al., 2021", "result": "potently activates SARM1"}]}
{"compound": "sulfo-ara-F-NMN [CZ-48]", "values": [{"measurement": "SARM1 activation in cells", "setting": "[6]", "result": "can activate SARM1"}, {"measurement": "SARM1 activation in in vitro assays", "setting": "[5]", "result": "can activate SARM1"}]}
